Measured values reported in ChEMBL document CHEMBL3826874, “Exploring new scaffolds for angiotensin II receptor antagonism” (Bioorg Med Chem, 2016).

Key:
[1] = target: T1, Type-1 angiotensin II receptor (Homo sapiens, UniProt P30556); assay: (§1) Displacement of [125I-Sar1-Ile8]Ang2 from human AT1 receptor expressed in HEK293 cell membrane incubated for 1 hr by gamma counting method; assay type: cell membranes
T1 sequence (P30556 whole entry): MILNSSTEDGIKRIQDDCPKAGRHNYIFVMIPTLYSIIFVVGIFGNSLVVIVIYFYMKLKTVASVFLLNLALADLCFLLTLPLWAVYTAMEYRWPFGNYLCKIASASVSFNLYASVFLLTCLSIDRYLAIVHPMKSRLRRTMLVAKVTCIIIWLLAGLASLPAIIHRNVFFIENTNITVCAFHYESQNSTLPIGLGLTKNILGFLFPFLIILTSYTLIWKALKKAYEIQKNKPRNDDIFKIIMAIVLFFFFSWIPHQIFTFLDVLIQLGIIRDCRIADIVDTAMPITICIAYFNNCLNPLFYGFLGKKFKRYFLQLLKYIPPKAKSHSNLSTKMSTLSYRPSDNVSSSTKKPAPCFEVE

[2] = target: T2, Type-1 angiotensin II receptor (Homo sapiens) (UniProt P30556); assay: as §1; assay type: cell membranes
T2 sequence (whole entry): T1 sequence (P30556 whole entry)

Row | SMILES | IC50 ([1]; read-out: pIC50 (converted)) | inhibition [2] | IC50 ([1]; read-out: IC50)
1 | Cc1ccc(CN(c2ccc(C(=O)NCc3ccccn3)cc2)S(C)(=O)=O)cc1 | 2.09 µM | Dose-dependent effect | 
2 | CN(Cc1cn(-c2ccccc2)nc1-c1ccc(Cl)cc1)C(=O)CCC(=O)O |  | Dose-dependent effect | 0.199 µM
3 | CN(Cc1cn(-c2ccccc2)nc1-c1ccc(F)cc1)C(=O)CCC(=O)O | 2.57 µM | Dose-dependent effect | 
4 | Cc1ccc(C)c(NC(=O)CN(C)C(=O)c2ccc(S(=O)(=O)N3CCCCCC3)cc2)c1 | 2.19 µM | Dose-dependent effect | 
